Here are results for one substance from patent US11815435B2, “Beta glucan immunopharmacodynamics” (HiberCell, Inc., priority 2017, dated 2023).

The test system of this test is anti-β-glucan antibody (ABA IgG, ABA IgM). The test is described as follows: Example 1: IgG and IgM ABA levels in a cancer subject on IVIG, IMPRIME PGG and pembrolizumab. In kind it is in vivo, human. The note with it: same subject and regimen. Here is the method:
Soluble β-glucan immunotherapy was administered to a subject diagnosed with glucaganoma. The subject's ABA level prior to immunotherapy treatment placed them in the Low-ABA subgroup, and therefore, their ABA level was boosted by administration of IVIG. GAMMAGARD at 100 mg/ml was intravenously administered prior to each treatment, which provided 161 μg ABA/ml. […] Each cycle was 3 weeks.

Consider pembrolizumab [reference compound], for which the “ABA IgG” value reads like this: (cycle 1, day 2 EOI pembro) 18.2 µg/mL; (cycle 2, day 1 EOI-pembro) 49.4 µg/mL; (cycle 3, day 1 EOI-pembro) 60.7 µg/mL. Further, the “ABA IgM” value was 5.3 µg/mL (cycle 1, day 2 EOI pembro) and 9.6 µg/mL (cycle 2, day 1 EOI-pembro).
